From the Biogen ADME set (Fang et al. 2023)
Values after ≈ are worked out from the molar mass of the structure shown.

Settings: for aqueous solubility: pH 6.8

Compound | MDR1-MDCK efflux ratio | intrinsic clearance, human liver microsomes [mL/min/kg] | intrinsic clearance, rat liver microsomes [mL/min/kg] | aqueous solubility [µg/mL] | fraction unbound, human plasma | fraction unbound, rat plasma
CN(C)CCOc1ccc(-c2nc(-c3ccncc3)c(-c3ccc4c(c3)CC/C4=N\O)[nH]2)cc1 | 4.8 | 12.7 | 171 | 1.1 (≈ 2.43 µM) | – | –
Cc1ccc(F)c(-c2noc(N)c2C)c1 | 0.523 | 19.6 | 293 | – | – | –
Cc1nc2ccccc2n1CCNc1ncccn1 | – | ≤ 4.74 | 299 | – | – | –
c1cncc(-c2ccnn2CN2CCOCC2)c1 | – | – | – | 17.3 (≈ 71 µM) | – | –
O=C(NCCc1ccc2c(c1)OCCO2)c1ccc2ccccc2n1 | 0.565 | 123 | 1950 | 9.67 (≈ 28.9 µM) | – | –
Cc1nc2cc(C(=O)N3CCc4nc5ccccc5c(=O)n4CC3)ccc2n1C | – | ≤ 4.74 | 24.7 | 67.3 (≈ 174 µM) | – | –
O=C(Nc1nccs1)[C@@H]1C[C@@H]2CCCC[C@@H]2N1C(=O)c1ccccc1 | 6.31 | 36.7 | 498 | – | – | –
COc1cccc(Cn2cnc3c(c2=O)COCC3)c1Cl | 0.9 | 5.71 | 138 | – | – | –
Nc1ccc(N2C(=O)CCCC2=O)cc1 | – | – | – | 28 (≈ 137 µM) | – | –
NC1CCCC(C(=O)N2CCC(c3c[nH]c4ncccc34)CC2)C1 (stereo not given) | 1.5 | ≤ 4.74 | – | – | 0.566 | –
O=C(Nc1nnc(SCc2ccc(F)cc2)s1)C1CCC1 | 0.689 | 52 | 1650 | – | – | –
Cc1nccn1CCCN1C(=O)SC(C)(C)C1=O | 2.51 | ≤ 4.74 | 83 | 29.2 (≈ 109 µM) | – | –
Cc1ccc(-c2cnc(N)cn2)c2cccnc12 | 0.671 | 23.1 | 75.4 | 31.8 (≈ 135 µM) | – | –
COc1cn(-c2ccc(-n3cccn3)cc2F)nc(-c2ccnn2-c2ccccc2)c1=O | 10.9 | ≤ 4.74 | 28.2 | – | – | –
Cc1ccc(=O)n(CCOc2cc(F)cc(Br)c2)n1 | 0.596 | 140 | 901 | – | – | –
CONC(=O)c1c(C)nn(C)c1Cl | 0.868 | ≤ 4.74 | ≤ 10.7 | – | – | –
COc1cccc(CN2CCN(C(=O)Cc3ccc(C)cc3)[C@@H](C)C2)c1 | 0.739 | 230 | 988 | 44 (≈ 125 µM) | – | –
O=C(c1ccc(Oc2ccccc2)cc1Cl)c1c[nH]c2ncnc(N[C@@H]3CC[C@@H](CO)OC3)c12 | 6.8 | ≤ 4.74 | ≤ 10.7 | – | 0.00341 | 0.00506
O=C(NC1CCCCC1)C1=CCN(C(=O)C2CC2)C1 | 2.4 | ≤ 4.74 | 29.8 | – | – | –

Compound | MDR1-MDCK efflux ratio | intrinsic clearance, human liver microsomes [mL/min/kg] | intrinsic clearance, rat liver microsomes [mL/min/kg] | aqueous solubility [µg/mL] | fraction unbound, human plasma | fraction unbound, rat plasma
CCN1CCc2c(sc(NC(=O)CS(=O)(=O)c3ccccc3)c2-c2nc3ccccc3s2)C1 | – | 71.6 | 435 | – | – | –
c1ccc(-c2nn3c(-c4ccco4)nnc3c3ccccc23)cc1 | – | – | – | 0.17 (≈ 0.544 µM) | – | –
Cc1cccc(O[C@H]2CN(Cc3ccc(OCCCO)cc3)C[C@@H]2O)c1 | 2.24 | 71 | 702 | 62 (≈ 173 µM) | – | –
CC(C)(C)OC(=O)N1CC=C(CCC(=O)NO)C1 | – | – | – | 44 (≈ 172 µM) | – | –
C#CCNC(=O)CCc1c(C)nn(C)c1C | 7.96 | ≤ 4.74 | ≤ 10.7 | 60.9 (≈ 278 µM) | – | –
Cn1c(=O)n(-c2ccc(C(C)(C)C#N)cc2)c2c3cc(-c4cnc5ccccc5c4)ccc3ncc21 | – | 67.3 | 91.3 | – | – | –
N#CC1(NC(=O)C2CCCCCC2)CC1 | – | ≤ 4.74 | ≤ 10.7 | 33.4 (≈ 162 µM) | – | –
Cc1nc(O)cc(C2CCN(c3cnccn3)CC2)n1 | 42 | ≤ 4.74 | 20.1 | 50.7 (≈ 187 µM) | – | –
COc1ccccc1Oc1c(NS(=O)(=O)c2ccc(C(C)(C)C)cc2)nc(-c2ncccn2)nc1OCCO | 88.2 | 16 | 71.8 | – | – | –
O=c1c2cccnc2ncn1[C@H]1CCCc2ccccc21 | 0.837 | ≤ 4.74 | 119 | – | – | –
O=c1c2cnccc2ncn1Cc1ccc2c(c1)CCCO2 | 0.724 | 45.9 | 281 | – | – | –
O=C(CCN1CCN(C(=O)OCc2cc(Cl)cc(Cl)c2)CC1)c1ccc2[nH]c(=O)oc2c1 | – | 147 | 513 | 4.4 (≈ 9.2 µM) | – | –
CC(C)(C)NC(=O)NCCn1nc2c(cc1=O)CCCC2 | 67 | 12.1 | 105 | 47.5 (≈ 162 µM) | – | –
c1ccc2nc(OC3CCNCC3)cnc2c1 | – | ≤ 4.74 | 183 | – | – | –
Cc1cccc(NC(=O)c2cncn2-c2ccccc2)n1 | – | 45.2 | 165 | – | – | –
COc1cc2c(cc1OC)CC(=O)N(CCCN(C)C[C@H]1Cc3cc(OC)c(OC)cc31)CC2 | 73.8 | 36.7 | 163 | 65.8 (≈ 140 µM) | 0.538 | 0.412
OC1(Cn2nnc(-c3cccnc3)n2)CCCCC1 | 0.66 | ≤ 4.74 | 142 | 25.1 (≈ 96.7 µM) | – | –
CCCNC(=O)c1ccc(OC2CCN(C)CC2)cc1 | – | ≤ 4.74 | 35.1 | – | – | –
Cc1c[nH]c(=O)n1-c1ccc(C(=O)Nc2ccc3ccccc3n2)cc1 | 10.2 | 8.88 | 49.4 | 5.9 (≈ 17.1 µM) | 0.0436 | –

The remaining lines, values ahead:

MDR1-MDCK efflux ratio | intrinsic clearance, human liver microsomes [mL/min/kg] | intrinsic clearance, rat liver microsomes [mL/min/kg] | aqueous solubility [µg/mL] | fraction unbound, human plasma | fraction unbound, rat plasma | Compound
5.53 | ≤ 4.74 | 70.1 | 39.1 (≈ 151 µM) | – | – | Cc1cc2ncn(CC(=O)NC(C)(C)C)c2cc1C
3.7 | ≤ 4.74 | 18 | 56.6 (≈ 142 µM) | – | – | Cn1cnnc1-c1cccc(NS(=O)(=O)c2ccc(N3CCCC3=O)cc2)c1
– | 61.8 | 122 | 4 (≈ 16.6 µM) | – | – | Cc1ccc2cc(C(=O)N(C)CCC#N)[nH]c2c1
– | – | – | 0.85 (≈ 3.38 µM) | – | – | Cc1ccc(C(=O)Nc2nc3ccccc3[nH]2)cc1
0.579 | ≤ 4.74 | 18.8 | 44.5 (≈ 178 µM) | – | – | Cc1ccc(C(=O)NCC#Cc2ccccc2)cn1
0.764 | ≤ 4.74 | 151 | 53.3 (≈ 197 µM) | – | – | Cc1ccc([C@@H]2N[C@@H](Cc3ccccc3)C(=O)N2C)o1
1.62 | ≤ 4.74 | 31.6 | – | – | – | CCN(CC)CC(=O)Nc1ccc(Oc2ccc(C)nn2)cc1
1.29 | ≤ 4.74 | 589 | – | – | – | CC(C)=CCOc1cccc(C(=O)NN2CCOCC2)c1
0.751 | – | – | 31.3 (≈ 126 µM) | – | – | COc1ccc(-c2csc(CC(N)=O)n2)cc1
1.8 | 111 | 566 | 55.6 (≈ 175 µM) | – | – | Cc1noc(C)c1C(=O)N1CCCN(c2ccc(F)cc2)CC1
0.682 | – | – | 0.26 (≈ 0.715 µM) | – | – | CCCCOc1ccccc1-c1cc(C(=O)NCc2ccccc2C)[nH]n1
1.8 | 12.4 | 1100 | 54.4 (≈ 148 µM) | – | – | Cc1ccc(NS(C)(=O)=O)c(C(=O)N(C)c2ccc3ccccc3c2)c1
– | 13.7 | 270 | – | – | – | Cc1cc(CN(C)C(=O)C(=O)Nc2ccc(F)c(C)c2)no1
1.2 | ≤ 4.74 | 45.1 | – | – | – | CNCc1cc(NC)nc(C2CCCN2C(=O)COc2ccccc2OC)n1 (stereo not given)
4.09 | 8.27 | 518 | 53.4 (≈ 140 µM) | – | – | CC(C)c1nnc(-c2ccc(-c3ccccc3)nc2)n1-c1cccc2nonc12
8.24 | ≤ 4.74 | 363 | – | – | – | COc1cccc(F)c1NC(=O)N1CCC(N2CC=CC2)CC1
2.39 | 61.2 | 250 | 50.5 (≈ 145 µM) | – | – | COc1cccc(NC(=O)CNc2cccc(-c3ccnc(C)n3)c2)c1
0.861 | 54.1 | 2450 | 76.3 (≈ 222 µM) | – | – | Cc1noc(C2CCN(C(=O)C3(c4cccc(F)c4)CCC3)CC2)n1
6.84 | 5.67 | 28.3 | – | – | – | Cc1cc(OCCCS(C)(=O)=O)cc(C)c1-c1cccc(COc2ccc3c(c2)OC[C@@H]3CC(=O)O)c1
4.05 | 285 | 436 | – | – | – | CC(C)N(C(=O)Cn1cccc2cc(C(F)F)nc1-2)C(C)C
1.37 | ≤ 4.74 | 17.4 | 20.9 (≈ 70.7 µM) | – | – | O=C(NCc1cccc(F)c1)c1[nH]nnc1-c1ccccc1
